# Values quoted from earlier work as cited in PMC4704022, “Insights on FXR selective modulation. Speculation on bile acid chemical space in the discovery of potent and selective agonists” (Scientific Reports, 2016).
# How the values were obtained:
# OSTα expression = system: OSTα expression; parameters: method as in PMID 25247751; conditions: compared with 6-ECDCA; cited from earlier work
# FXR [1] = system: FXR; parameters: method as in PMID 25247751; conditions: read-out: EC50, FXR transactivation; cited from earlier work
# FXR [2] = system: FXR; parameters: method as in PMID 10360171; conditions: cited from earlier work
SMILES,Potency in inducing expression of OSTα (in words) (OSTα expression),EC50 (FXR [1]) [µM],FXR ligand strength relative to CDCA (in words) (FXR [2])
"C[C@H](CCCOS(=O)(=O)O)[C@H]1CCC2C3C(CC[C@@]21C)[C@@]1(C)CCCC[C@H]1C[C@H]3O (stereo partly drawn) [compound 5, 7α-hydroxy-5β-cholan-24-sulfate]",comparable to that of 6-ECDCA,~9,–
C[C@H](CCC(=O)O)[C@H]1CC[C@H]2[C@@H]3CC[C@@H]4C[C@H](O)CC[C@]4(C)[C@H]3CC[C@]12C [lithocholic acid],–,–,weaker natural ligands
